Reference: PMC7156456, “Modulation of virus-induced NF-κB signaling by NEMO coiled coil mimics” (Nature Communications, 2020)
Peptide text beside a SMILES is read from it. * marks the point of attachment. Cbz = O=C(OCc1ccccc1)*

What was measured:
vFLIP/NEMO interaction = target: T1, vFLIP/NEMO interaction (Human herpesvirus 8 type P, UniProt F5HEZ4); assay: biochemical; assay type: binding, Kaposi's sarcoma herpesvirus (KSHV)
T1 construct: vFLIP (1-178) and NEMO (150-272) were cloned into pET28a vector; made in house; host or cells: E. coli BL21(DE3)
T1 sequence (F5HEZ4 1-178): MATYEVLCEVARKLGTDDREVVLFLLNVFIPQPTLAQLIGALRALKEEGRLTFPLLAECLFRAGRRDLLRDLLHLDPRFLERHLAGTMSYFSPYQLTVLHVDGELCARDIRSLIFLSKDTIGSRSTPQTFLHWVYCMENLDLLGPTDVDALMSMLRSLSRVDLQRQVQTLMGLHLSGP
Method: For the competition assay, two-fold serial dilution of the different NEMO mimetics were prepared in DMSO then diluted in TR-FRET buffer to 5× and added in triplicates to a 384 low volume well plate. His-MBP vFLIP diluted to 5× in TR-FRET buffer (250 nM) was then added to each well and incubated for 15 min at RT. His-Biotinylated NEMO diluted to 5× in TR-FRET buffer (250 nM) was the added to the mixture followed by addition of 5× or 200 nM) streptavidin-XL665 and (5× or 1 nM) of the antibody-tagged fluorophore anti-MBPK labeled with Europium cryptate). The final concentration of the NEMO mimetics ranged from 0.195 μM to 100 μM. Total assay volume was 20 μL. The plate was incubated for 1 h at RT then read using BioTek Synergy NEO. Titration of non-biotinylated NEMO (0.0195-10 μM) was used as a positive control in every run. The effect of the peptides on vFLIP/NEMO interaction was normalized to the control and expressed as percent inhibition (% of control):
%ofcontrol=FRETCHD−FRETbackground/FRETcontrol−FRETbackground where FRET control is the TR-FRET signal in DMSO treated wells (highest signal) and FRET background is TR-FRET signal in wells containing the highest concentration of non-biotinylated NEMO (10 μM) which provides the lowest signal. Normalized TR-FRET data was plotted using Graphpad Prism.
Supplementary Figure 1. Schematic representation of the Time-resolved Fluorescence Energy Transfer (TR-FRET) binding assay. (a) Complexes of recombinant his-MBP vFLIP, biotinylated His-NEMO, Europium cryptate conjugated anti-MBP antibody and strepavidin XL665 were used to generate proximity for a FRET signal between the donor fluorophore Europium cryptate and the acceptor fluorophore strepavidin XL665. The TR-FRET signal was calculated as a ratiometric measurement of the acceptor fluoroscence emission at 665nm over the donor emission at 620nm multiplied by 10000. […] (d) Size exclusion chromatography of NEMO-vFLIP complex indicating a shift to the left in absorbance at 280nm when NEMO binds specifically to vFLIP. […]

full length NEMO = full length NEMO (Homo sapiens, UniProt Q9Y6K9); assay: Fluorescence polarization direct binding assay, NEMO control
full length NEMO, sequence (Q9Y6K9 193-252 limits assumed): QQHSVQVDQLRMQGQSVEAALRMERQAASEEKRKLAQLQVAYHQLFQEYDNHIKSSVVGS
Method: The relative affinity of FITC-CHD3^NEMO to MBP-vFLIP were determined using fluorescence polarization-based direct binding assay. The polarization experiments were performed using a DTX 880 Multimode Detector (Beckman) at 25 °C with excitation and emission wavelengths of 485 and 525 nm, respectively. Each polarization experiment was performed in a 96-well round bottom plate (Greiner) in assay buffer: 20 mM Tris-HCl, 150 mM NaCl, 0.5 mM TCEP, 10% glycerol, 0.1% pluronic acid, pH 8. The binding affinity (KD) values reported for each peptide are from experiments performed in triplicate. Raw values were fit to a sigmoidal dose-response nonlinear regression model in Graphad Prism 6.0.
All binding experiments with FITC-labeled CHD peptide to MBP-vFLIP were performed under the same conditions. Briefly, serial dilutions of MBP-vFLIP were made from 75 μM into 100 nM of FITC-labeled CHD peptide in assay buffer. KD was determined using the following equation[56]: KD=RT×1−FSB+LST×FSB2/FSB−LST where, […]

BC-1 PEL cells = assay: Live cell confocal microscopy, cellular uptake; assay type: cell-based
Method: Cells were then added to 35 mm glass bottom MatTek poly-lysine coated plates (p356c-0-10C) and immunofluorescence images were captured using LSM880 confocal miscroscope with Airyscan resolution detector, spectral detector and incubation. Images were processed using Fiji software (Supplementary Fig. 11).

[1] = system: vFLIP and NEMO levels in Namalwa Mut vFLIP cell line; assay: vFLIP protein stability, Namalwa Mut vFLIP cell line; assay type: cell-based; settings: 5 μM, within 2 h of treatment
Method: vFLIP protein stability and turnover was measured by treating Namalwa WT vFLIP and NF-kB dead vFLIP mutant cell lines in the presence or absence of 5 μM of the proteasomal inhibitor MG-132 (Calbiochem cat 474790) and 100 μg/mL of the protein synthesis inhibitor cycloheximide (Sigma-Aldrich, cat. 66-81-9). Cells were harvested at the indicated time intervals and lysed in RIPA buffer and supernatants were analyzed by immunoblotting.

BC-2 = system: BC-2; set-up: method as in earlier work; settings: BC-2, PEL, KSHV+/EBV+; ref 2,3,4 (supplement); read-out: PU-H71 LC50; cited from earlier work
BCBL-1 = system: BCBL-1; set-up: method as in earlier work; settings: BCBL-1, PEL, KSHV+; ref 2,3,4 (supplement); read-out: PU-H71 LC50; cited from earlier work
Namalwa = system: Namalwa; set-up: method as in earlier work; settings: Burkitt, EBV+, ref 2,3,4 (supplement), read-out: PU-H71 LC50; cited from earlier work
BC-3 = system: BC-3; set-up: method as in earlier work; settings: BC-3, PEL, KSHV+; ref 2,3,4 (supplement); read-out: PU-H71 LC50; cited from earlier work
BC-1 = system: BC-1; set-up: method as in earlier work; settings: BC-1, PEL, KSHV+/EBV+; ref 2,3,4 (supplement); read-out: PU-H71 LC50; cited from earlier work

With `CC[C@H](C)[C@H](NC(=O)[C@H](C)NC(=O)[C@H](CCC(=O)O)NC(C)=O)C(=O)N[C@@H](CCCNC(=N)N)C(=O)N[C@@H](CCC(N)=O)C(=O)N[C@@H](CC(C)C)C(=O)N[C@@H](Cc1ccc(O)cc1)C(=O)N[C@@H](CCC(=O)O)C(=O)N[C@@H](CCC(=O)O)C(=O)N[C@H](C(=O)N[C@@H](CCCNC(=N)N)C(=O)N[C@@H](CC(N)=O)C(=O)N[C@@H](CC(C)C)C(=O)N[C@@H](CCCCn1cc(COCc2cn(CCCC[C@H](NC(=O)[C@H](CCCNC(=N)N)NC(=O)[C@H](Cc3ccccc3)NC(=O)[C@H](CC(C)C)NC(=O)[C@H](CCCNC(=N)N)NC(=O)[C@H](Cc3c[nH]cn3)NC(=O)[C@@H](NC(=O)[C@H](CCC(=O)O)NC(C)=O)[C@@H](C)CC)C(=O)N[C@H](C(=O)N[C@@H](CC(=O)O)C(=O)N[C@@H](CCC(=O)O)C(=O)N[C@@H](CC(C)C)C(=O)N[C@H](C(=O)N[C@@H](CCCNC(=N)N)C(N)=O)[C@@H](C)CC)[C@@H](C)CC)nn2)nn1)C(N)=O)[C@@H](C)CC` [CHD1^NEMO] the Ki (vFLIP/NEMO interaction) was > 50000 nM.

In the case of `CC[C@H](C)[C@H](NC(=O)[C@H](C)NC(=O)[C@H](CCC(=O)O)NC(C)=O)C(=O)N[C@@H](CCCNC(=N)N)C(=O)N[C@@H](CCC(N)=O)C(=O)N[C@@H](CC(C)C)C(=O)N[C@@H](Cc1c[nH]c2ccccc12)C(=O)N[C@@H](CCC(=O)O)C(=O)N[C@@H](CCC(=O)NC1CCCCC1)C(=O)N[C@H](C(=O)N[C@@H](CCCNC(=N)N)C(=O)N[C@@H](CCCNC(=N)N)C(=O)N[C@@H](CC(C)C)C(=O)N[C@@H](CCCCn1cc(COCc2cn(CCCC[C@H](NC(=O)[C@H](CCCNC(=N)N)NC(=O)[C@H](Cc3ccccc3)NC(=O)[C@H](CC(C)C)NC(=O)[C@H](CCCNC(=N)N)NC(=O)[C@H](C)NC(=O)[C@@H](NC(=O)[C@H](CCC(=O)O)NC(C)=O)[C@@H](C)CC)C(=O)N[C@H](C(=O)N[C@@H](CC(=O)O)C(=O)N[C@@H](CCC(=O)O)C(=O)N[C@@H](CC(C)C)C(=O)N[C@H](C(=O)N[C@@H](CCCNC(=N)N)C(N)=O)[C@@H](C)CC)[C@@H](C)CC)nn2)nn1)C(N)=O)[C@@H](C)CC` [CHD4^NEMO], the Ki (vFLIP/NEMO interaction) is reported as > 50000 nM.

For `CC[C@H](C)[C@H](NC(=O)[C@H](CC(C)C)NC(=O)[C@H](CCC(=O)O)NC(=O)[C@H](CC(=O)O)NC(=O)[C@@H](NC(=O)[C@H](CCCCn1cc(COCc2cn(CCCC[C@H](NC(=O)[C@H](CC(C)C)NC(=O)[C@H](CCCNC(=N)N)NC(=O)[C@H](CCCNC(=N)N)NC(=O)[C@@H](NC(=O)[C@H](CCC(=O)NC3CCCCC3)NC(=O)[C@H](CCC(=O)O)NC(=O)[C@H](Cc3c[nH]c4ccccc34)NC(=O)[C@H](CC(C)C)NC(=O)[C@H](CCC(N)=O)NC(=O)[C@H](CCCNC(=N)N)NC(=O)[C@@H](NC(=O)[C@H](Cc3c[nH]c4ccccc34)NC(=O)[C@H](CCC(=O)O)NC(=O)CCNC(=S)Nc3ccc4c(c3)C(=O)OC43c4ccc(O)cc4Oc4cc(O)ccc43)[C@@H](C)CC)[C@@H](C)CC)C(N)=O)nn2)nn1)NC(=O)[C@H](CCCNC(=N)N)NC(=O)[C@H](Cc1ccccc1)NC(=O)[C@H](CC(C)C)NC(=O)[C@H](CCCNC(=N)N)NC(=O)[C@H](Cc1c[nH]cn1)NC(=O)[C@@H](NC(=O)[C@H](CCC(=O)O)NC(C)=O)[C@@H](C)CC)[C@@H](C)CC)C(=O)N[C@@H](CCCNC(=N)N)C(N)=O` [FITC-CHD3^NEMO], the “binding to wild-type NEMO coiled coil” value (full length NEMO) was “does not bind”, the cellular uptake (BC-1 PEL cells; 500 nM FITC-labeled peptide, 37 °C, live BC-1 cells) was “enters BC-1 cells” and the “cellular uptake at 4 °C / with sodium azide” value (BC-1 PEL cells; 4 °C or 10 mM sodium azide) was “reduction in cellular uptake”.

With `CC(C)C[C@@H](C=O)NC(=O)[C@H](CC(C)C)NC(=O)[C@H](CC(C)C)NC(=O)OCc1ccccc1` [MG132] (Cbz-Leu-Leu-Leu-aldehyde) the “vFLIP and NEMO protein levels” value [1] was “stabilized vFLIP protein and increased NEMO levels”.

For `CC(C)NCCCn1c(Sc2cc3c(cc2I)OCO3)nc2c(N)ncnc21` [PU-H71], the CC50 (BC-2) is listed as 27.1 nM, the CC50 (BCBL-1) is listed as 217 nM and the CC50 (Namalwa) is listed as 337 nM. The CC50 (BC-3) was 63.4 nM and the CC50 (BC-1) was 36.9 nM.
